Test results: publication PMC3759464 (PLoS ONE, 2013)
Where two headings read alike, the source gives them in different places.

Key:
rH4R [1] = target: T1, rH4R (Rattus norvegicus, UniProt Q91ZY1); assay: cell-based; design: gene Hrh4; conditions: HEK293T-CRE-Luc stably expressing SF-H4R-His6, read-out: rH4R / α
hH4R [2] = target: T2, hH4R (Homo sapiens, UniProt Q9H3N8); assay: cell-based; design: gene HRH4; SF-hH4R-His6: cleavable influenza hemagglutinin signal peptide and FLAG, hexahistidine tag; stably expressed in HEK293T with CRE-luc2P reporter; conditions: HEK293T-CRE-Luc stably expressing SF-H4R-His6, read-out: hH4R / α
mH4R [3] = target: T3, mH4R (Mus musculus, UniProt Q91ZY2); assay: cell-based; design: gene Hrh4; SF-mH4R-His6: cleavable influenza hemagglutinin signal peptide and FLAG, hexahistidine tag; GTPgammaS: Sf9 membranes co-expressing Galphai2 and Gbeta1gamma2; species or system HEK293T-CRE-Luc stably expressing SF-H4R-His6
T3 sequence (Q91ZY2 1-391): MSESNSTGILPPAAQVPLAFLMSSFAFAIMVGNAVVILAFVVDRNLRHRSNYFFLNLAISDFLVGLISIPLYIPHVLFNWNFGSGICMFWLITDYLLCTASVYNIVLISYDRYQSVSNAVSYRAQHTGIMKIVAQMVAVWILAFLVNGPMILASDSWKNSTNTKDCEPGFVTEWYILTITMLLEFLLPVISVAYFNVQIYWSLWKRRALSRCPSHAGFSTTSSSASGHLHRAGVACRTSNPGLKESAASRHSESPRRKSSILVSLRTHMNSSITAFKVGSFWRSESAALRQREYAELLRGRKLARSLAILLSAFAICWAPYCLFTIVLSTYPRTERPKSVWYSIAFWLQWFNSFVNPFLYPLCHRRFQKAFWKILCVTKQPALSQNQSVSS

hH4R [4] = target: T2, hH4R; assay: cell-based; design: gene HRH4
mH4R [5] = target: T3, mH4R; assay: cell-based; design: gene Hrh4; conditions: HEK293T-CRE-Luc stably expressing SF-H4R-His6, read-out: mH4R / α / −0.23±0.03
rH4R [6] = target: T1, rH4R; assay: cell-based; design: gene Hrh4; SF-rH4R-His6: cleavable influenza hemagglutinin signal peptide and FLAG, hexahistidine tag; GTPgammaS: Sf9 membranes co-expressing Galphai2 and Gbeta1gamma2; species or system HEK293T; CRE-luciferase reporter gene assay, inhibition of forskolin-stimulated luminescence, agonist mode; conditions: HEK-293T, read-out: rH4R / α
rH4R [7] = target: T1, rH4R; assay: cell-based; design: gene Hrh4
rH4R [8] = target: T1, rH4R; assay: CRE-luciferase reporter gene assay, HEK293T; assay type: cell-based; design: gene Hrh4; SF-rH4R-His6: cleavable influenza hemagglutinin signal peptide and FLAG, hexahistidine tag; conditions: for EC50: read-out: rH4R / pEC50 or (pKB) (converted); for rH4R / pEC50 or (pKB): 1 µM forskolin, 5 h, 37 °C, agonist mode
mH4R [9] = target: T3, mH4R; assay: CRE-luciferase reporter gene assay, HEK293T; assay type: cell-based; design: gene Hrh4; SF-mH4R-His6: cleavable influenza hemagglutinin signal peptide and FLAG, hexahistidine tag; conditions: for EC50: read-out: mH4R / pEC50 or (pKB) (converted); for mH4R / pEC50 or (pKB): 1 µM forskolin, 5 h, 37 °C, agonist mode
hH4R [10] = target: T2, hH4R; assay: cell-based; design: gene HRH4; SF-hH4R-His6: cleavable influenza hemagglutinin signal peptide and FLAG, hexahistidine tag; stably expressed in HEK293T with CRE-luc2P reporter; species or system HEK293T; CRE-luciferase reporter gene assay, inhibition of forskolin-stimulated luminescence, agonist mode; conditions: HEK-293T, read-out: hH4R / α
rH4R [11] = target: T1, rH4R; assay: […]GTPγS binding, Sf9 membranes; assay type: biochemical; design: gene Hrh4; SF-rH4R-His6: cleavable influenza hemagglutinin signal peptide and FLAG, hexahistidine tag; GTPgammaS: Sf9 membranes co-expressing Galphai2 and Gbeta1gamma2; conditions: read-out: rH4R / pEC50 or (pKB) (converted)
rH4R [12] = target: T1, rH4R; assay: CRE-luciferase reporter gene assay, HEK293T; assay type: cell-based; design: gene Hrh4; SF-rH4R-His6: cleavable influenza hemagglutinin signal peptide and FLAG, hexahistidine tag; conditions: read-out: rH4R / pEC50 or (pKB) (converted)
mH4R [13] = target: T3, mH4R; assay: […]GTPγS binding, Sf9 membranes; assay type: biochemical; design: gene Hrh4; SF-mH4R-His6: cleavable influenza hemagglutinin signal peptide and FLAG, hexahistidine tag; GTPgammaS: Sf9 membranes co-expressing Galphai2 and Gbeta1gamma2; conditions: read-out: mH4R / pEC50 or (pKB) (converted)
[14] = HEK293T-CRE-Luc stably expressing SF-H4R-His6, read-out: mH4R / α
[15] = HEK293T-CRE-Luc stably expressing SF-H4R-His6, read-out: rH4R / α
[16] = HEK293T-CRE-Luc stably expressing SF-H4R-His6, read-out: hH4R / α / −0.32±0.04 / −0.39±0.03

T2 sequence (Q9H3N8 whole entry): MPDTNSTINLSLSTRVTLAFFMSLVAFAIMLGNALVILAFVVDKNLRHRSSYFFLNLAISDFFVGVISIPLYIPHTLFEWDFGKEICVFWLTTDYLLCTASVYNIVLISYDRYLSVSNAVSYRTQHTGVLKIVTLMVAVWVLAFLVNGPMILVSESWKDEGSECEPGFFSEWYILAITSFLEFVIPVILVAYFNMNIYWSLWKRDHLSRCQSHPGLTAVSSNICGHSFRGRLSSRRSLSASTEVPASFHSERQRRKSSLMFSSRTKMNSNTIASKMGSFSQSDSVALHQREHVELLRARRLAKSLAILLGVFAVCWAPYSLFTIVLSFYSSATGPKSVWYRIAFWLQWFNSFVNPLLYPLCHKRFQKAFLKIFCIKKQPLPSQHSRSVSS
T1 sequence (Q91ZY1 whole entry): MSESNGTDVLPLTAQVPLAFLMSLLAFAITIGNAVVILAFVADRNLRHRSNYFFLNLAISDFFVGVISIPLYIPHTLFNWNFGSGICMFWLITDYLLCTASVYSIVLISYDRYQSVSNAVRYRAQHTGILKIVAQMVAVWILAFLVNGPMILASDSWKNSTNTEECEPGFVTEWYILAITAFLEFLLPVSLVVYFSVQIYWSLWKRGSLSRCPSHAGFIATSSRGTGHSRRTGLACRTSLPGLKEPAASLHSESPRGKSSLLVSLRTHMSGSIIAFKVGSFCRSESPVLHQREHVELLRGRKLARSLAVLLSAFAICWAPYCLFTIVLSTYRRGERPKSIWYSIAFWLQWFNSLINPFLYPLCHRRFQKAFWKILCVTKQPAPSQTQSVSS

Row | SMILES | Emax (hH4R [2]) [%] | Emax (mH4R [3]; [14]) [%] | Emax (rH4R [7]; [15]) [%] | EC50 (rH4R [8]) [nM] | EC50 (mH4R [9]) [nM] | other results
1 | CN1CCN(c2cc(NCc3c(Cl)cccc3Cl)nc(N)n2)CC1 [compound 16, ST-1006] | 91 ± 1 | 37 ± 4 | – | – | – | Emax (rH4R [1]): -55 ± 12%
2 | S=C(NC1CCCCC1)N1CCC(c2c[nH]cn2)CC1 [compound 20, Thioperamide] | – | – | – | – | – | Emax (hH4R [4]; HEK293T-CRE-Luc stably expressing SF-H4R-His6, read-out: hH4R / α / −0.31±0.06): -32 ± 4%; Emax (mH4R [5]): -44 ± 2%; Emax (rH4R [6]): -20 ± 2%
3 | N=C(N)SCCc1cnc[nH]1 [compound 8, Imetit] | 94 ± 2 | 96 ± 2 | 95 ± 1 | 61.7 | 38.9 | –
4 | Cc1nc[nH]c1CCN [compound 5, 5(4)-Methylhistamine] | 97 ± 3 | 97 ± 2 | 100 ± 3 | 933 | 135 | –
5 | c1ncc(CCCC2CCNCC2)[nH]1 [compound 18, VUF 5681] | – | 42 ± 2 | – | – | 6310 | Emax (hH4R [10]): 9%
6 | c1cc(Cc2cnc[nH]2)ccn1 [compound 7, Immethridine] | 65 ± 2 | 87 ± 2 | 94 ± 1 | 1580 | 1120 | –
7 | CN1CCN(C2=Nc3cc(Cl)ccc3Nc3ccccc32)CC1 [compound 17, Clozapine] | 130 ± 5 | – | – | – | – | –
8 | NCCc1c[nH]cn1 [compound 1, Histamine] | 100 | 100 | 100 | – | – | –
9 | C[C@@H](N)Cc1cnc[nH]1 [compound 2, (R)-α-Methylhistamine] | 103 ± 4 | 98 ± 1 | 96 ± 2 | – | – | rH4R / pEC50 or (pKB) (rH4R [8]): 5.60±0.12; mH4R / pEC50 or (pKB) (mH4R [9]): 6.16±0.07
10 | NC(=NCc1ccc(Cl)cc1)SCCCc1cnc[nH]1 [compound 9, Clobenpropit] | 97 ± 3 | 55 ± 5 | 37 ± 3 | 158 | 186 | Kb (rH4R [11]): 501 nM
11 | N#C/N=C(/NCCCCc1c[nH]cn1)NCCSc1ccccc1 [compound 14, 2-cyano-1-[4-(1H-imidazol-4-yl)butyl]-3-[(2-phenylthio)ethyl]guanidine] | – | – | – | – | 245 | Kb (rH4R [12]): 7080 nM; Kb (mH4R [13]): 794 nM
12 | Nc1nc2c(c(N3CC[C@@H](N)C3)n1)CCCc1ccccc1-2 [compound 22, A 943931] | – | – | – | – | – | Emax (hH4R [4]; [16]): -63 ± 7%; Emax (rH4R [6]): -6%
13 | c1nc(CC2CCNCC2)c[nH]1 [compound 6, Immepip] | 98 ± 2 | 95 ± 3 | 93 ± 5 | 67.6 | 141 | –
14 | CNCCc1cnc[nH]1 [compound 4, N^α-Methylhistamine] | 98 ± 3 | 97 ± 2 | 98 ± 4 | 589 | 575 | –
15 | N#CNC(=NCCCCc1cnc[nH]1)NCCSc1ccccc1 [UR-PI376 (14)] | 102 ± 2 | 51 ± 5 | – | – | – | Emax (rH4R [6]): 8 ± 10%
16 | Nc1nc2c(c(N3CCNCC3)n1)CCC1=C2[C@H]2CCCC[C@H]2O1 [compound 23, A 987306] | – | – | – | – | – | Emax (hH4R [4]; [16]): -62 ± 7%; Emax (rH4R [6]): -8%
17 | CN1CCN(c2cc(N3Cc4ccccc4C3)nc(N)n2)CC1 [compound 21, ST-1012] | – | – | – | 7.59 | 32.4 | Emax (hH4R [4]; HEK293T-CRE-Luc stably expressing SF-H4R-His6, read-out: hH4R / α / −0.31±0.06 / −0.32±0.04): -39 ± 3%; Emax (rH4R [7]; HEK293T-CRE-Luc stably expressing SF-H4R-His6, read-out: rH4R / α / −0.20±0.02): 24 ± 7%; Emax (mH4R [3]; HEK293T-CRE-Luc stably expressing SF-H4R-His6, read-out: mH4R / α / −0.23±0.03 / −0.44±0.02): 24 ± 5%
18 | C[C@H](N)Cc1c[nH]cn1 [compound 3, (S)-α-Methylhistamine] | 90 ± 4 | 82 ± 7 | 69 ± 3 | – | – | rH4R / pEC50 or (pKB) (rH4R [8]): 4.26±0.04; mH4R / pEC50 or (pKB) (mH4R [9]): 4.72±0.16
19 | c1ccc(COCCCc2c[nH]cn2)cc1 [compound 11, Proxyfan] | 68 ± 2 | 88 ± 4 | – | 2140 | 794 | Emax (rH4R [7]; HEK293T-CRE-Luc stably expressing SF-H4R-His6, read-out: rH4R / α / −0.01±0.06): 76 ± 3%
